Data set [1] has as its target T1, NCS-1 (Homo sapiens, UniProt P62166).
T1 construct: His tag (TEV-cleavable) (N, cleaved yes); made in house; host or cells: Escherichia coli BL21(DE3)
The data set is described as follows: Isothermal titration calorimetry, NCS-1 titrated into PQIQ peptide. It counts as binding. To be noted: 100 μM PQIQ in cell, 1 mM NCS-1 in syringe, 25 °C, pH 7.5; complex aggregates. The method, then: The peptide used corresponds to residues 1903–1929 of the human P/Q receptor. The synthetic P/Q peptide, […] (hereafter termed the PQIQ peptide), was purchased from GenicBio. The peptide was delivered >95% pure.
Expression was induced overnight at 18 °C; cells were harvested, resuspended into lysis buffer [50 mM Tris-HCl (pH 7.5), 200 mM NaCl, 5 mM CaCl2, and Complete EDTA Free Protease Inhibitor (Roche Applied Science)], lysed, centrifuged, filtered, and loaded onto the Hiprep 16/10 Phenyl FF High Sub (GE Healthcare) column that was pre-equilibrated with buffer A [50 mM Tris-HCl (pH 7.5), 200 mM NaCl, and 5 mM CaCl2]. The column was extensively washed with buffer A and NCS-1 eluted using Milli-Q water. […] The purity of the sample was assessed by sodium dodecyl sulfate–polyacrylamide gel electrophoresis (SDS–PAGE) and deemed to be >95% pure. The eluted peak was concentrated and stored at −80 °C.
(§1) ITC experiments were performed using a MicroCal ITC200 instrument. […] If necessary, minor adjustments were made to the pH of the peptide solution. […] One injection of 0.2 μL, followed by 20 injections of 2 μL, was made with a 180 s spacing to allow the baseline to return after each injection. All experiments were performed in triplicate. The data were analyzed with a one-site (three-parameter) curve fitting conducted using the MicroCal-supported ITC module within Origin version 7.
For orientation: ITC needs no label: the signal is the heat of the interaction.

Data set [2] can be described thus: Solubility / aggregation observed in ITC experiments. It counts as physicochemical. The following applies: limits use of peptide as titrant in ITC; 50 mM Tris (pH 7.5), 50 mM NaCl, 5 mM CaCl2. The method, then: as §1

No end group written: not given here.

T1 sequence (P62166 whole entry, species assumed): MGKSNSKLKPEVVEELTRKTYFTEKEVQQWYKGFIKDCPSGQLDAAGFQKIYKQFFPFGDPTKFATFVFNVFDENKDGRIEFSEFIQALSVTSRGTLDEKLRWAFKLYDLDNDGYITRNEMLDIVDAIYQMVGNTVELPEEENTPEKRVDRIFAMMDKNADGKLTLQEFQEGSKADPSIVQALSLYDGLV

For “TVGKIYAAMMIMEYYRQSKAKKLQAMR [PQIQ peptide]”, the equilibrium binding constant result in data set [1] is on record as “not possible to obtain reliable equilibrium binding constants”. Moreover, the solubility result in data set [2] is “limitations in PQIQ peptide solubility”.
